{"source": "patent US6653354B2", "about": "“NMDA antagonist comprising xenon” (priority 1999, dated 2003)", "key": {"GABAA receptors [1]": {"system": "GABAA receptors", "assay": "Currents evoked by exogenously applied GABA in voltage-clamped cultured hippocampal neurons", "type": "cell-based", "details": "100% xenon; cultured rat hippocampal neurons"}, "humans": {"system": "humans", "assay": "MAC / anaesthetic EC50 in humans", "type": "in vivo", "details": "37° C.", "method": "(§1) The gaseous concentration of xenon which prevents a response to a painful stimulus (i.e. MAC) appears to vary among species, being 71% atm in humans (Cullen SC et al, Anesthesiology 1969, 31:305-309), 98% atm in rhesus monkeys (Whitehurst S L et al, J. Neurosurg. Anesthesiol. 1994, 6:275-279) and 161% atm in rats (Koblin D D et al, Anesth. Analg. 1998, 87:419-424). When these values are converted to free aqueous concentrations at 37° C. (Franks N P et al, Br. J. Anaesth. 1993, 71:65-76; Franks N P et al, Anesthesiology, 1996, 84:716-720) using an Ostwald water/gas partition coefficient of 0.0887 (Weathersby P K et al, Undersea Biomed. Res. 1980, 7:277-296), the values obtained are 2.5 mM, 3.4 mM and 5.6 mM for humans, monkeys and rats respectively, with the average value being 3.8 mM. For the experiments described herein, performed at room temperature, the concentration of xenon present in the standard test solution was 3.4 mM. […] This is illustrated with representative traces in FIG. 2."}, "humans, monkeys and rats": {"system": "humans, monkeys and rats", "assay": "MAC as free aqueous concentration, average of humans, monkeys and rats", "type": "in vivo", "details": "37° C.", "method": "as §1"}, "GABAA receptors [2]": {"molecular_target": "T1, GABAA receptors (Bos taurus, UniProt P08219+P08220+P22300)", "T1 construct": "expressed in transfected cells", "T1 sequence (P08219 28-456)": "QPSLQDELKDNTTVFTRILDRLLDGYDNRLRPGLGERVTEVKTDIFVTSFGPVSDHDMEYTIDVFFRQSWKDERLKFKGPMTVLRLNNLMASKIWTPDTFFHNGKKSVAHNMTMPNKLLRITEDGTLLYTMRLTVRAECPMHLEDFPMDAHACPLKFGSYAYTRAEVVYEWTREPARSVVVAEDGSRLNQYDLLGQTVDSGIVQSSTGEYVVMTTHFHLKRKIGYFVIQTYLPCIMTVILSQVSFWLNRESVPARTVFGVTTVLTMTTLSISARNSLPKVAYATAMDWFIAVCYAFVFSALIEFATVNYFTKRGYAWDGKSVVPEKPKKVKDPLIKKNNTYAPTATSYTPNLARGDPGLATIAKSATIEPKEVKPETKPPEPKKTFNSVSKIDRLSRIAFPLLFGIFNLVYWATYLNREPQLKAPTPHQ", "T1 sequence (P08220 26-474)": "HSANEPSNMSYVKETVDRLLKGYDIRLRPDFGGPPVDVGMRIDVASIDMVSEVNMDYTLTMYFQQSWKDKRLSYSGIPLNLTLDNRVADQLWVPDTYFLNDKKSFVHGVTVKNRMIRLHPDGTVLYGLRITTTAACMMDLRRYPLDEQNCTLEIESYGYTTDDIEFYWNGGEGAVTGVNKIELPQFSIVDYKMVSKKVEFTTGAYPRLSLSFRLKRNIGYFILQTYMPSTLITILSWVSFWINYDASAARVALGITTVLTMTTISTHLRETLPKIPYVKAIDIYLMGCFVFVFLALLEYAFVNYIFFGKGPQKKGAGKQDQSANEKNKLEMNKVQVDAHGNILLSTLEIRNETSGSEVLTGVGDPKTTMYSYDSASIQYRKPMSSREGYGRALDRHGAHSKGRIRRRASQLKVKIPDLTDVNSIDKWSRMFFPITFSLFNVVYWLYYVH", "T1 sequence (P22300 40-475)": "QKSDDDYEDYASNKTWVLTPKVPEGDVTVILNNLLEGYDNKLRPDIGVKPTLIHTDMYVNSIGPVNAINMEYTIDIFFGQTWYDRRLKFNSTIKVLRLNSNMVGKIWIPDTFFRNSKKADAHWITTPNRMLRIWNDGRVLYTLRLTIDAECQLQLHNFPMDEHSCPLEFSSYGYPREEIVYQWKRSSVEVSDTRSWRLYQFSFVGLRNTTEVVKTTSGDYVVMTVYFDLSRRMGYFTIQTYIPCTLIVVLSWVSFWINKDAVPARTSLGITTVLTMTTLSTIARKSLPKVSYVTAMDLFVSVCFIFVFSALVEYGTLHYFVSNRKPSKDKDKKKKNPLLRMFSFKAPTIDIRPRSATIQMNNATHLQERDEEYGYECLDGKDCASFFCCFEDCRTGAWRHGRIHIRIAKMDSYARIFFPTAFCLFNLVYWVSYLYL", "assay": "Currents activated by GABA in voltage-clamped PA3 cells stably expressing defined GABA subunits", "type": "cell-based", "details": "100% xenon", "from_the_text": "Studies carried out by the applicant have shown that xenon has virtually no effect on GABAA receptors."}}, "data": [{"smiles": "[Xe]", "note": "[xenon]", "values": [{"measurement": "effect on currents activated by 3 μM GABA", "setting": "GABAA receptors [1]", "value": "not significantly affected"}, {"measurement": "MAC converted to free aqueous concentration", "setting": "humans", "value": 2.5, "unit": "mM"}, {"measurement": "MAC as free aqueous concentration, average value", "setting": "humans, monkeys and rats", "value": 3.8, "unit": "mM"}, {"measurement": "effect on currents activated by 3 μM GABA", "setting": "GABAA receptors [2]", "value": "not significantly affected"}]}]}
